Test results taken from patent US9341616B2, “Sweet taste receptor chimeric proteins and use thereof” (AJINOMOTO CO., INC., priority 2014, dated 2016).
Residues, ends and D or L forms follow the SMILES beside them.

The compounds below were run against h-mT1R2-EX5/T1R3mosaicA (UniProt Q8TE23+Q925D8, A12W/A31M/A537S/A558R/A564V/A568V/A570T/A588V/A645S/A649T/A658V/A698V/A702T/A782V/A793V/A807V/C582S/C678S/E16H/E530V/E534N/E542M/E548N/E725V/F14L/F29L/F525Y/F541I/F612A/F622V/F665L/F695L/G696N/G701T/H528R/H728R/I36V/I490V/I510L/I518V/I595M/I60P/I617V/I643V/I645L/I692L/I695G/I706V/I740A/I803L/K30R/K504M/K555R/K565R/K626T/K714N/K818R/K827G/L17P/L521P/L560F/L571I/L578I/L610P/L631F/L636F/L639V/L684P/L688V/L702I/L734M/L735F/L800F/L823M/L825Q/M19T/M492I/M616G/M644L/M682V/M690V/M744T/M748V/N52R/N540G/N541S/N547G/N58S/N63T/N675D/N721H/P545F/P561R/P564S/P61V/P638T/P824S/Q32K/Q536L/Q53S/Q546K/Q550E/Q555R/Q56R/Q611L/Q676H/Q757R/Q795R/Q831P/R498S/R632Q/R667S/S22P/S45E/S501P/S547N/S550A/S576L/S595F/S610P/S628F/S635P/S637R/S663R/S670G/S679G/S681F/S703N/S717H/S727G/S784D/S804G/T46A/T50G/T529S/T542A/T549I/T609V/T629S/T642S/T663I/T694M/T705I/T706G/T716I/T813A/V508I/V512P/V557A/V573A/V584A/V585L/V613L/V617M/V673M/V687A/V691A/V694A/V718L/V718M/V723A/V729T/V738A/V741L/V774I/V791M/V805L/V812A/V821L/W599R/W676R/W824R/Y533F/Y615F/Y671F/Y680C/Y769S/Y783H/Y794L). Conditions: Table 4; genes h-mTEX5/T3mA (h-mT1R2-EX5, T1R3mA); HEK293E cells.
Sequence of h-mT1R2-EX5/T1R3mosaicA (Q8TE23 with tags, fused parts or gaps with the stated changes limits assumed): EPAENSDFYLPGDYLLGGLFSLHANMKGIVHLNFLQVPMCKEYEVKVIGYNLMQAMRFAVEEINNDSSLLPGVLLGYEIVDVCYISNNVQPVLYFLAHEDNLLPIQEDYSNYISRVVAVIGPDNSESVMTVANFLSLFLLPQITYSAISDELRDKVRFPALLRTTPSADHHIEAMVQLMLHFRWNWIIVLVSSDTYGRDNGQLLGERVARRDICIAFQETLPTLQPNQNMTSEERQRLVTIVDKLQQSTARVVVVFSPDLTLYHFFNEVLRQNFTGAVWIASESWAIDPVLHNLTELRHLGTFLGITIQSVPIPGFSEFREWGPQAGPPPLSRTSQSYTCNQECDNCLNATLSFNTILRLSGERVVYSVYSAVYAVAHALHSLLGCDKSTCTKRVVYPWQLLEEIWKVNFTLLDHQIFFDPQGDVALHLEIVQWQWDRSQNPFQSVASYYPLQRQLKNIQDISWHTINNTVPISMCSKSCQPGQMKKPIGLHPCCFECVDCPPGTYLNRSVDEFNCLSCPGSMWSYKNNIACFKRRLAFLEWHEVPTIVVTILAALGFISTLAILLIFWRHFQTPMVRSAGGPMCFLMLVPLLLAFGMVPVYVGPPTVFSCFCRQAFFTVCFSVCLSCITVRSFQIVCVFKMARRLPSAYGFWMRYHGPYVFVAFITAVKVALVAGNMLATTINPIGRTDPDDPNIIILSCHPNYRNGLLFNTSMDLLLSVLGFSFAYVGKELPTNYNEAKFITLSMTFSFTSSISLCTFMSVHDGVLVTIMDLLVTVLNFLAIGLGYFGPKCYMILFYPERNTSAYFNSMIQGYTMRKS
Sequence of h-mT1R2-EX5/T1R3mosaicA (Q925D8 with tags, fused parts or gaps with the stated changes limits assumed): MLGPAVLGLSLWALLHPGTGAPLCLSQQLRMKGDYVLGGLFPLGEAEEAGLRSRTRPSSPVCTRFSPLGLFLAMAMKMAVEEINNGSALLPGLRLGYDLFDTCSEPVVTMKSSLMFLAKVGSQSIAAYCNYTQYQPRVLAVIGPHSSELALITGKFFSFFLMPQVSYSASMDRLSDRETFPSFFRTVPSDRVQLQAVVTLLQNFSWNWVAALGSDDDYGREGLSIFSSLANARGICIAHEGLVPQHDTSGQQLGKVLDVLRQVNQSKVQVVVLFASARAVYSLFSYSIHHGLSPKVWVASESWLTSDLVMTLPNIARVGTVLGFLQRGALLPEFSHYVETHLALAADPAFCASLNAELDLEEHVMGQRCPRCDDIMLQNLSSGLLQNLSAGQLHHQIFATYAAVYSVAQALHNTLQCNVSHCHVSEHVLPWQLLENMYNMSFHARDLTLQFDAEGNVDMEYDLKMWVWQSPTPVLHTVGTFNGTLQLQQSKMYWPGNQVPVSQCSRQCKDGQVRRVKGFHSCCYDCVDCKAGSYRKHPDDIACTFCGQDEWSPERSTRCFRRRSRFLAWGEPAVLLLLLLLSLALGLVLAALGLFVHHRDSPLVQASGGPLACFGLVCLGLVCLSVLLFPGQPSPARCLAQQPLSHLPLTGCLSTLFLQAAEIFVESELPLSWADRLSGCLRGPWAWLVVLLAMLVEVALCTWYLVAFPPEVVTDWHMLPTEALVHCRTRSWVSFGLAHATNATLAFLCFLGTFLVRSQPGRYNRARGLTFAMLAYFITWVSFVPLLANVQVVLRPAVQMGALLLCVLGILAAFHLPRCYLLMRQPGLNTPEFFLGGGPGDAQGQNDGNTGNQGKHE

| SMILES | S/N |
| --- | --- |
| OC[C@H]1O[C@H](O[C@]2(CCl)O[C@H](CCl)[C@@H](O)[C@@H]2O)[C@H](O)[C@@H](O)[C@H]1Cl [Sucralose, sucralose] | 7.4 |
| CC1=CC(=O)NS(=O)(=O)O1 [Acesulfame K, acesulfame potassium] | 5.1 |
| COC(=O)[C@H](Cc1ccccc1)NC(=O)[C@H](CC(=O)O)NCCCc1ccc(OC)c(O)c1 [Advantame, advantame] | 9.4 |
| OC[C@H]1O[C@@](CO)(O[C@H]2O[C@H](CO)[C@@H](O)[C@H](O)[C@H]2O)[C@@H](O)[C@@H]1O [Sucrose, sucrose] | 3.5 |
| COC(=O)[C@H](Cc1ccccc1)NC(=O)[C@H](CC(=O)O)NCCC(C)(C)C [Neotame, neotame] | 7.5 |
| C[C@H](NC(=Nc1ccc(C#N)cc1)NCC(=O)O)c1ccccc1 [SC-45647, [3-[(S)-1-phenylethyl]-2-(4-cyanophenyl)guanidino]acetic acid] | 7.3 |
| O=C1NS(=O)(=O)c2ccccc21.[Na] [Saccharin Na, sodium saccharin] | 4.6 |
| COC(=O)[C@H](Cc1ccccc1)NC(=O)[C@@H](N)CC(=O)O [Aspartame, aspartame] (HELM PEPTIDE1{D.F.[CO[*:1]]}$$$$V2.0) | 7.6 |
